# Data taken from patent publication US20250134874A1, “PHARMACEUTICAL FORMULATIONS COMPRISING 3-({[(4R)-7-{METHYL[4-(PROPAN-2-YL)PHENYL]AMINO}-3,4-DIHYDRO-2H-1-BENZOPYRAN-4-YL]METHYL}AMINO)PYRIDINE-4-CARBOXYLIC ACID” (TACHYON THERAPEUTICS, INC., priority 2021, published 2025).
# Tested on: 301 cancer cell lines from different tumor types (OncoPanel; HD Biosciences)
# Assay: 2D cell viability inhibition assay (CellTiter-Glo) in cancer cell line panel
# Assay type: cell-based
# Set-up: key to AUC: AUC as fraction of the no-inhibition area (dose range × 0–100 % of control)
# Conditions: for Emax: in %
# Protocol: In a larger screening study, compound 1 was evaluated across a broad cancer cell line panel (OncoPanel; HD Biosciences) composed of 301 cancer cell lines from different tumor types.
# 2D cell viability inhibition assays were performed in multiwell plates seeded with cells from the panel. After seeding, the plates were cultured overnight in a humidified incubator at 37° C. to promote adherence. Assays were initiated in individual wells by adding either DMSO as a vehicle control, growth media as a blank, or serially diluted compound 1 (10 μM to 0.0005 μM with 1:3 serial dilution). Cultures were incubated for 168 hours after which the number of viable cells in each test well was assessed using the CellTiter-Glo® Luminescent Cell Viability Assay. Luminescence readouts were performed using an EnVision® Multilabel Reader and the compound 1 readouts were normalized to the DMSO control readouts, expressed as a percent of the control. Outliers were flagged out by visual inspection. Percent of control was plotted against the corresponding compound 1 concentration and the absolute IC50 value was determined using four-parameter logistic non-linear regression as the concentration where inhibition was 50% of the control. For maximum inhibition <50%, the absolute IC50 was reported as >10. In addition to EC50 and IC50, AUC was determined and was normalized to the area corresponding to theoretical no-inhibition (the rectangular area defined by the compound dose range and 0 to 100 in y). Emax was recorded as the minimum in y with the compound dose range. For those cell lines where Emax>40, EC50 was manually set to 10 μM. A hierarchical clustering algorithm based on Euclidean distance between the standardized input values and “Ward.D” method as implemented in R hclust function was used to visualize the compound 1 cellular potency data. The sensitive/moderate/resistant calls for each cell line was determined by visually inspecting the resulting clustering dendrogram. All the analyses were done in R Core Team.
# [1] = Homo sapiens, 143B, 143B cell line
# [2] = Homo sapiens, 647-V, 647V cell line
# [3] = Homo sapiens, 786-0, 7860 cell line
# [4] = Homo sapiens, A101D, A101D cell line
# [5] = Homo sapiens, A549, A549 cell line
# [6] = Homo sapiens, A2058, A2058 cell line
# [7] = Homo sapiens, A2780, A2780 cell line
# [8] = Homo sapiens, A-375, A375 cell line
# [9] = Homo sapiens, ACHN, ACHN cell line
# [10] = Homo sapiens, AGS, AGS cell line
# [11] = Homo sapiens, ASPC1, ASPC1 cell line
# [12] = Homo sapiens, AZ-521, AZ521 cell line
# [13] = Homo sapiens, BFTC-905, BFTC905 cell line
# [14] = Homo sapiens, BT-549, BT549 cell line
# [15] = Homo sapiens, BXPC-3, BXPC3 cell line
# [16] = Homo sapiens, C32, C32 cell line
# [17] = Homo sapiens, CAKI-1, CAKI1 cell line
# [18] = Homo sapiens, CFPAC-1, CFPAC1 cell line
# [19] = Homo sapiens, CHL-1, CHL1 cell line
# [20] = Homo sapiens, COLO 205, COLO205 cell line
# [21] = Homo sapiens, COLO-320-HSR, COLO320HSR cell line
# [22] = Homo sapiens, COLO-679, COLO679 cell line
# [23] = Homo sapiens, COLO-680N, COLO680N cell line
# [24] = Homo sapiens, COLO-741, COLO741 cell line
# [25] = Homo sapiens, COR-L279, CORL279 cell line
smiles,measurement,setting,value
"CC(C)c1ccc(N(C)c2ccc3c(c2)OCC[C@H]3CNc2cnccc2C(=O)O)cc1 [Compound 1, 3-({[(4R)-7-{methyl[4-(propan-2-yl)phenyl]amino}-3,4-dihydro-2H-1-benzopyran-4-yl]methyl}amino)pyridine-4-carboxylic acid]",AUC,HCC1599 cell line,0.4639
same,Emax,HCC1599 cell line,32.7
same,AUC,HCC1806 cell line,0.5325
same,Emax,HCC1806 cell line,36.87
same,AUC,"HCC1937, breast, ductal carcinoma, 168 hours",0.9094
same,AUC,HCC1954 cell line,0.5912
same,AUC,HCC2935 cell line,0.6922
same,AUC,HCT15 cell line,0.1838
same,Emax,HCT15 cell line,4.541
same,AUC,HCT116 cell line,0.5356
same,AUC,HEL cell line,0.5268
same,Emax,HEL cell line,28.89
same,AUC,HEP3B217 cell line,0.6448
same,IC50,HEP3B217 cell line,129 nM
same,AUC,HEPG2 cell line,0.6086
same,AUC,HL60 cell line,0.3703
same,Emax,HL60 cell line,9.446
same,AUC,HLE cell line,0.3839
same,Emax,HLE cell line,7.876
same,AUC,HLF cell line,0.4657
same,Emax,HLF cell line,18.25
same,EC50,"HLF, HLF cell line",11.5 nM
same,IC50,"HLF, HLF cell line",18 nM
same,AUC,HMCB cell line,0.5041
same,Emax,HMCB cell line,32.25
same,AUC,HPAC cell line,0.3965
same,AUC,HS294T cell line,0.6005
same,AUC,HS578T cell line,0.5373
same,Emax,HS578T cell line,32.75
same,AUC,"HS688AT, skin, NS, 168 hours",1.105
same,AUC,"HS695T, skin, NS, 168 hours",0.9238
same,AUC,"HS739T, breast, NS, 168 hours",0.8686
same,AUC,"HS839T, skin, NS, 168 hours",1.097
same,AUC,"HS852T, skin, NS, 168 hours",0.883
same,AUC,HSC2 cell line,0.4511
same,Emax,HSC2 cell line,26.01
same,AUC,HSC3 cell line,0.6313
same,AUC,HSC4 cell line,0.4347
same,Emax,HSC4 cell line,23.28
same,AUC,HT29 cell line,0.5741
same,AUC,HT55 cell line,0.4704
same,Emax,HT55 cell line,22.172
same,AUC,"HT144, skin, NS, 168 hours",0.8912
same,AUC,HT1080 cell line,0.5438
same,Emax,HT1080 cell line,29.74
same,AUC,HT1376 cell line,0.5519
same,AUC,HUH1 cell line,0.4145
same,Emax,HUH1 cell line,11.68
same,AUC,HUH7 cell line,0.3926
same,Emax,HUH7 cell line,7.054
same,AUC,"HUH28, biliary tract, NS, 168 hours",0.9862
same,AUC,HUTU80 cell line,0.3016
same,EC50,[1],13.9 nM
same,IC50,[1],14.4 nM
same,EC50,[2],11.2 nM
same,IC50,[2],12.2 nM
same,EC50,[3],11.7 nM
same,IC50,[3],22.5 nM
same,EC50,[4],6.91 nM
same,IC50,[4],11 nM
same,IC50,"Homo sapiens, A204, 168 h, A204, soft tissue, NS, 168 hours",> 10000 nM
same,EC50,[5],18.5 nM
same,IC50,[5],32.4 nM
same,EC50,[6],28.1 nM
same,IC50,[6],46.8 nM
same,EC50,[7],2.1 nM
same,IC50,[7],2.14 nM
same,EC50,[8],7.62 nM
same,IC50,[8],10.6 nM
same,EC50,[9],30.3 nM
same,IC50,[9],34.7 nM
same,EC50,[10],5.18 nM
same,IC50,[10],6.19 nM
same,EC50,[11],18.9 nM
same,IC50,[11],66.8 nM
same,EC50,[12],3.84 nM
same,IC50,[12],4.19 nM
same,EC50,[13],8.93 nM
same,IC50,[13],9.91 nM
same,IC50,"Homo sapiens, BT-20, 168 h, BT20, breast, ductal carcinoma, 168 hours",> 10000 nM
same,IC50,"Homo sapiens, BT-474, 168 h, BT474, breast, ductal carcinoma, 168 hours",> 10000 nM
same,EC50,[14],5.84 nM
same,IC50,[14],9.98 nM
same,EC50,[15],8.45 nM
same,IC50,[15],19.4 nM
same,IC50,"Homo sapiens, C2BBe1, 168 h, C2BBE1, large intestine, adenocarcinoma, 168 hours",> 10000 nM
same,EC50,[16],5.18 nM
same,IC50,[16],5.36 nM
same,EC50,[17],≥ 10000 nM
same,IC50,[17],4.43 nM
same,IC50,"Homo sapiens, CAL-27, 168 h, CAL27, upper aerodigestive tract, squamous cell carcinoma, 168 hours",> 10000 nM
same,IC50,"Homo sapiens, CAPAN-1, CAPAN1 cell line",116 nM
same,IC50,"Homo sapiens, CCF-STTG1, 168 h, CCFSTTG1, central nervous system, astrocytoma, 168 hours",> 10000 nM
same,EC50,[18],11.3 nM
same,IC50,[18],15.3 nM
same,EC50,[19],4.68 nM
same,IC50,[19],6.08 nM
same,EC50,[20],5.97 nM
same,IC50,[20],11.5 nM
same,EC50,[21],4.46 nM
same,IC50,[21],4.61 nM
same,EC50,[22],2340 nM
same,IC50,[22],2040 nM
same,EC50,[23],4.79 nM
same,IC50,[23],6.97 nM
same,EC50,[24],6.86 nM
same,IC50,[24],10.4 nM
same,IC50,"Homo sapiens, COLO-829, COLO829 cell line",> 10000 nM
same,EC50,[25],4.23 nM
same,IC50,[25],4.34 nM
same,IC50,"Homo sapiens, Calu-1, 168 h, CALU1, lung, squamous cell carcinoma, 168 hours",> 10000 nM
same,IC50,"Homo sapiens, Calu-3, 168 h, CALU3, lung, adenocarcinoma, 168 hours",> 10000 nM
same,EC50,"Homo sapiens, Calu-6, CALU6 cell line",11.5 nM
